Read-outs that look alike come from different tables or passages of the source.
Experiments:
[1] = test system: eIF2α phosphorylation (ATF-4 5′UTR luciferase reporter); assay: surrogate eIF2α phosphorylation dual-luciferase reporter (DLR) assay; type: cell-based; details: for fold induction at 1.25 µM: read-out: Fold stimulation of ATF-4 Surrogate eIF2α @ 1.25 μM; for fold induction at 5 µM: read-out: Fold stimulation of ATF-4 Surrogate eIF2α @ 5 μM
Description: The dual luciferase expression vector and other plasmids used in the Examples provided herein have been previously reported (see e.g., Ziegeler et al, J. Biol. Chem. 285 (2010) 15408-15419). The dual luciferase surrogate eIF2α phosphorylation assay, has also been previously reported (see e.g., Chen et al, Nat. Chem. Biol. 7 (2011) 610-616). Briefly, a dual Renilla and Firefly luciferase mammalian reporter vector that transcribes both mRNAs from the same bi-directional enhancer/promoter complex was utilized for generation of surrogate eIF2α phosphorylation assay (see e.g., Ziegeler et al, J. Biol. Chem. 285 (2010) 15408-15419). Both mRNAs contained the same 90 nucleotide plasmid derived 5′UTR. In addition, 5′UTR of the Firefly luciferase open reading frame was fused in-frame to the 267 nucleotide ATF-4 5′UTR (see e.g., Chen et al, Nat. Chem. Biol. 7 (2011) 610-616).
Cells expressing firefly and renilla luciferases were assayed with a dual glow luciferase assay kit, per manufacturer's instruction (Promega Inc., Madison, WI). The data calculations were carried out as the ratio of firefly to renilla luciferase signal (see e.g., Ziegeler et al, J. Biol. Chem. 285 (2010) 15408-15419). Dose-response curves were obtained, and triplicate data points were fitted to the logistical sigmoidal model using nonlinear least-squares regression performed in GraphPad Prism 6.
All newly synthesized N,N′-disubstituted ureas were initially evaluated by testing in the surrogate eIF2α phosphorylation dual-luciferase reporter (DLR) assay (see e.g., Chen et al, Nat. Chem. Biol. 7 (2011) 610-616; and Ziegeler et al, J. Biol. Chem. 285 (2010) 15408-15419). Briefly, this assay takes advantage of the fact that activated HRI phosphorylates eIF2α which inhibits eIF2 guanine nucleotide exchange factor eIF2B, responsible for exchanging the GDP in the eIF2·GDP complex for GTP. The reduction in the recycling of eIF2·GDP into eIF2·GTP interferes with the formation of eIF2·GTP·Met-tRNAi ternary complex. […] These include mRNA coding for activating transcription factor 4 (ATF-4) (see e.g., Aktas et al, Oncotarget, 4 (2013) 1606-1617; Aktas et al, Oncotarget, 6 (2015) 6902-6914; and Aktas et al, Proc. Natl. Acad. Sci. U.S.A. 95 (1998) 8280-8285).
In the present assay, firefly (F) luciferase mRNA was fused to the 5′UTR of ATF-4 mRNA that had multiple uORFs, while renilla (R) luciferase mRNA was fused to a 5′UTR lacking any uORFs. Agents that reduce the amount of the eIF2·GTP·Met-tRNAi ternary complex, such as N,N′-disubstituted ureas that activate HRI, increase F luciferase expression while reducing the R luciferase expression, resulting in an increased F/R luciferase ratio. The ureas of the present application were tested at 10 μM, 5 μM, 2.5 μM, and 1.25 μM concentrations in 96-well assay plates (see e.g., Chen et al, Nat. Chem. Biol. 7 (2011) 610-616; and Bai et al, ChemBioChem, 14 (2013) 1255-1262). The activity scores as the F/R ratios were calculated for every compound-treated well and normalized to F/R ratio of vehicle-treated (DMSO) wells in the same plate, arbitrarily set at 1 (F/R=1). Data obtained in the surrogate dual-luciferase eIF2α phosphorylation (DLR) assay for the series of 1-phenyl-3/4-(4-trifluorometyl) phenoxy-cycloalkyl)ureas (4-CF3-ΦcAlkΦUs) and 1-phenyl-3-(5-(4-(trifluoromethyl) phenoxy)pyrimidin-2-yl)ureas (4-CF3-ΦOPyΦUs) described herein are shown in Tables 1-2.

endogenous eIF2α = assay: Western blot, phosphorylation of endogenous eIF2α in CRL-2813 cells; type: cell-based, human; details: 5 μM, 2 hours, Western blot (FIG. 2A)
Procedure: (§1) FIGS. 2A-2B show HRI activators of the present application induce eIF2α phosphorylation and modify its downstream effectors. In FIG. 2A, CRL-2813 cells were treated with 5 μM of each compound for 2 hours, cell lysates were probed with phosphorylated (P-eIF2α) and total eIF2α (T-eIF2α) and β-actin specific antibodies. In FIG. 2B, CRL-2813 cells were treated with 5 μM HRI activators for 8 hours and lysates were immunoblotted with antibodies against CHOP, p27^KiPl, cyclin D1 and β-actin.
Cells cultured under recommended media conditions were plated and maintained in serum-containing media without antibiotics in 14-cm plates (Nunc) until reaching 70% confluence. Cells were then treated with compounds for 6 h, washed with cold PBS once, and lysed with M-PER Mammalian Protein Extraction Reagent (Pierce) for 30 min on ice. The cell lysates were centrifuged at 12,000 RPM for 15 min and the supernatants were transferred to fresh tubes and the concentrations were determined by BCA (Pierce). […]

cyclin D1 = assay: Western blot, cyclin D1 expression in CRL-2813 cells; type: cell-based, human; details: 5 μM, 8 hours, Western blot (FIG. 2B)
Procedure: as §1
(§2) Cells cultured under recommended media conditions were plated and maintained in serum-containing media without antibiotics in 14-cm plates (Nunc) until reaching 70% confluence. Cells were then treated with compounds for 6 h, washed with cold PBS once, and lysed with M-PER Mammalian Protein Extraction Reagent (Pierce) for 30 min on ice. The cell lysates were centrifuged at 12,000 RPM for 15 min and the supernatants were transferred to fresh tubes and the concentrations were determined by BCA (Pierce). Equal amount of proteins were mixed with Laemmli Sample Buffer, heated at 100° C. for 5 min, separated by SDS-PAGE, and probed with anti-phosphoserine-51-eIF2α (Phos-eIF2α), anti-total eIF2α-specific antibodies (Total-eIF2α) (Biosource International, Hopkinton, MA), anti-CHOP, anti-cyclin D1 or anti-actin (Santa Cruz Biotechnology, CA) using procedures substantially similar to previous reports (see e.g., Aktas et al, Mol. Cell. Biol. 17 (1997) 3850-3857).
(§3) Endogenous eIF2α is the best-known substrate of HRI and the upstream regulator of the eIF2·GTP·Met-tRNAi ternary complex abundance, while CHOP expression is a downstream effector of eIF2α phosphorylation. For assessing eIF2α phosphorylation, blotted cell lysates were treated for two hours with vehicle or selected compounds using antibodies specific for the total-eIF2α and the phosphorylated-eIF2α (T-eIF2α and [PhoS^51]-eIF2α), respectively (see e.g., Aktas et al, J. Nutr. 134 (2004) 2487S-2491S) (see FIG. 2A).

[2] = test system: human melanoma CRL-2813 cells; assay: sulforhodamine B (SRB) cell proliferation assay; type: cell-based; details: 5 days, read-out: IC50 (concentration that inhibits growth of human melanoma CRL-2813 cells by 50%)
Procedure: Cells were seeded in 96-well plates and maintained for 5 days in the presence of 0.5 μM to 20 μM of individual compound, and cell proliferation was measured by the sulforhodamine B (SRB) assay according to previous reports (see e.g., Palakurthi et al, Cancer Res. 60 (2000) 2919-2925): briefly, at the end of a 5-day treatment, cells were fixed in 10% cold trichloroacetic acid. Cell number was estimated by measuring the remaining bound dye of sulforhodamine B after washing. The percentage of growth was calculated by using the equation: 100×[(T-T0)/(C-T0)], where T and C represent the absorbance in treated and control cultures at Day 5, and T0 at time zero, respectively. If T was less than T0, cell death had occurred and was calculated from 100×[(T-T0)/T0].
All 4-CF3-ΦOcAlkΦUs were tested in the sulforhodamine B (SRB) cell proliferation assay to establish the concentrations that inhibit human melanoma CRL-2813 cells growth by 50% (IC50) (see Table 1). This activity reflects a combined effect of membrane permeability and overall anti-proliferative effects that include on target and off-target effects.

CHOP = assay: Western blot, CHOP expression in CRL-2813 cells; type: cell-based, human; details: 5 μM, 8 hours, Western blot (FIG. 2B)
Procedure: as §1, §2, §3

[3] = 1.25 μM, F/R luciferase ratio normalized to DMSO wells (F/R=1)
[4] = 5 μM, F/R luciferase ratio normalized to DMSO wells (F/R=1)

| SMILES | activity in the DLR assay (in words) [1] | fold induction at 1.25 µM [1, 3] | fold induction at 5 µM [1, 4] | melting point | phosphorylation of endogenous eIF2α (endogenous eIF2α) | expression of cyclin D1 relative to DMSO (cyclin D1) | IC50 ([2]; Homo sapiens, CRL2813, 120 h) | expression of CHOP relative to DMSO (CHOP) | Fold stimulation of ATF-4 Surrogate eIF2α @ 1.25 μM [1, 3] | Fold stimulation of ATF-4 Surrogate eIF2α @ 5 μM [1, 4] | IC50 [2] |
| --- | --- | --- | --- | --- | --- | --- | --- | --- | --- | --- | --- |
| N#Cc1ccc(F)c(NC(=O)N[C@H]2CC[C@H](Oc3ccc(C(F)(F)F)cc3)CC2)c1 [Compound 6-VI, 1-(5-Cyano-2-fluorophenyl)-3-(trans-4-(4-(trifluoromethyl)phenoxy)cyclohexyl)urea] | inactive | 1 ± 0.3 | 1.5 ± 0.5 | 234.6 to 237 °C | least active | did not inhibit the expression of cyclin D1 | > 10000 nM | did not increase expression of CHOP | – | – | – |
| Cc1ccc(F)cc1NC(=O)N[C@H]1CC[C@H](Oc2ccc(C(F)(F)F)cc2)CC1 [Compound 7-VI, 1-(5-Fluoro-2-methylphenyl)-3-(trans-4-(4-(trifluoromethyl)phenoxy)cyclohexyl)urea] | – | 1.8 ± 0.8 | 1.5 ± 0.4 | 238.2 to 239.8 °C | – | decreased the expression of cyclin D1 | 5300 ± 1800 nM | increased the expression of CHOP | – | – | – |
| N#Cc1cc(F)cc(NC(=O)N[C@H]2CC[C@H](Oc3ccc(C(F)(F)F)cc3)CC2)c1 [Compound 9-VI, 1-(3-Cyano-5-fluorophenyl)-3-(trans-4-(4-(trifluoromethyl)phenoxy)cyclohexyl)urea] | – | – | – | 219.8 to 222 °C | – | – | – | – | 3.7 ± 0.8 fold | 6.1 ± 1.1 fold | 1400 ± 300 nM |
| O=C(Nc1ccc(F)c(F)c1)N[C@H]1C[C@H](Oc2ccc(C(F)(F)F)cc2)C1 [Compound 10-IV, 1-(3,4-difluorophenyl)-3-(trans-3-(4-(trifluoromethyl)phenoxy)cyclobutyl)urea] | – | 2.2 ± 0.5 | 4.5 ± 0.4 | 179.9 to 182 °C | – | – | 5500 ± 700 nM | – | – | – | – |
| O=C(Nc1ccc(F)c(F)c1)N[C@H]1CC[C@H](Oc2ccc(C(F)(F)F)cc2)C1 [Compound 10-V, 1-(3,4-Difluorophenyl)-3-((1S,3S)-3-(4-(trifluoromethyl)phenoxy)cyclopentyl)urea] | – | 0.9 ± 0.2 | 3.5 ± 0.7 | 175.4 to 177.5 °C | – | – | 5200 ± 1500 nM | – | – | – | – |
| O=C(Nc1ccc(F)c(F)c1)N[C@H]1CC[C@H](Oc2ccc(C(F)(F)F)cc2)CC1 [Compound 10-VI, 1-(3,4-Difluorophenyl)-3-(trans-4-(4-(trifluoromethyl)phenoxy)cyclohexyl)urea] | – | 2.9 ± 0.7 | 5.6 ± 1.2 | 228.2 to 229.8 °C | – | – | 1300 ± 300 nM | – | – | – | – |
| O=C(Nc1cccc(F)c1F)N[C@H]1C[C@H](Oc2ccc(C(F)(F)F)cc2)C1 [Compound 11-IV, 1-(2,3-Difluorophenyl)-3-(trans-3-(4-(trifluoromethyl)phenoxy)cyclobutyl)urea] | – | 0.8 ± 0.1 | 6.2 ± 2.7 | 205.9 to 208 °C | – | – | 2300 ± 900 nM | – | – | – | – |
| O=C(Nc1cccc(F)c1F)N[C@H]1CC[C@H](Oc2ccc(C(F)(F)F)cc2)CC1 [Compound 11-VI, 1-(2,3-Difluorophenyl)-3-(trans-4-(4-(trifluoromethyl)phenoxy)cyclohexyl)urea] | – | 4.7 ± 1 | 9.9 ± 1.3 | 227.3 to 229.9 °C | – | decreased the expression of cyclin D1 | 1600 ± 2000 nM | increased the expression of CHOP | – | – | – |

Reference: patent US20240076272A1, “Activators of Heme Regulated Inhibitor Kinase (HRI)” (The Brigham and Women`s Hospital, Inc., priority 2019, published 2024)
